Values joined by “and” are separate entries in the source; they are usually repeats but may differ in a detail not shown here. Identical values can stand only once. Like-named read-outs stand apart in the source and are kept apart here.
Assays:
[1] = tested on: yeast line 26972c::pFL61-MEP-a; format: cell-based, Saccharomyces cerevisiae; settings: 10 mM glucose; for Uptake of ^14C-methylamine in presence of carbonyl cyanide m-chlorophenylhydrazone: 26972c::pF161 MEP-a +CCCP 10 pM; for Uptake of ^14C-methylamine in presence of 0.1 mM dinitrophenol (DNP): 26972c::pFL61-MEP-a +DNP 0.1 mM; for Uptake of ^14C-methylamine: 26972c::pFL61-MEP-a, two independent series
Experimental: (§1) The yeast lines 26972c::pFL61, 26972c::pFL61-MEP-a and their starting lines S1278b (Dubois & Grenson, 1979, Mol Gen Genet 175: 67-76, MEP-1/MEP-2 ura3) were grown in liquid medium with 1.7 g yeast nitrogen base without ammonium and without amino acids (Difco), 20 g agarose, 1% glucose (w/v), 0.5 mg/l proline until the culture reached the logarithmic phase. After centrifuging of each 25 ml of the culture the cells were washed with 10 mM phosphate pH 7 or pH 4 and taken up in 1.5 ml 10 mM phosphate buffer. Ten minutes before starting the transport measurements, it was made up to an end concentration of 10 mM glucose. […] of the suspension was added to a solution of 10 mM phosphate pH 4 or 7, 100 μM unlabelled methylamine and 5 μCi ^14C-labelled methylamine (0.1 mCi/1.9 μmol) (end concentrations). The uptake of the methylamine was measured after 10, 60, 120 and 180 seconds. For this, to 50 μl of starting material was taken and in a volume of 1 ml H2O+3 mM unlabelled methylamine absorbed on a glass fibre filter. After washing with 10 ml H2O+3 mM unlabelled methylamine the amount of ^14C-labelled methylamine taken up was measured by scintillation (Table Ia and Ib).

yeast strain Σ1278b = experiment: Uptake of ^14C-methylamine in yeast strain Σ1278b; format: cell-based, Saccharomyces cerevisiae; settings: 10 mM glucose; for Uptake of ^14C-methylamine in presence of carbonyl cyanide m-chlorophenylhydrazone (CCCP): Σ1278b +CCCP 10 pM; for Uptake of ^14C-methylamine in presence of 0.1 mM dinitrophenol (DNP): Σ1278b +DNP 0.1 mM
Experimental: as §1

[2] = tested on: yeast strain 26972c::pFL61; experiment: Uptake of ^14C-methylamine in yeast strain 26972c::pFL61 (zero control, plasmid without cDNA insertion); format: cell-based, Saccharomyces cerevisiae; settings: 10 mM glucose
Experimental: as §1

Saccharomyces cerevisiae = settings: cited from earlier work

## N#CC(C#N)=NNc1cccc(Cl)c1 [CCCP, carbonyl cyanide m-chlorophenylhydrazone]
[1]; pH = 7, 10 sec
  Uptake of ^14C-methylamine in presence of carbonyl cyanide m-chlorophenylhydrazone: 484.60 cpm
[1]; pH = 7, 60 sec
  Uptake of ^14C-methylamine in presence of carbonyl cyanide m-chlorophenylhydrazone: 1407.00 cpm
[1]; pH = 7, 120 sec
  Uptake of ^14C-methylamine in presence of carbonyl cyanide m-chlorophenylhydrazone: 2597.92 cpm
[1]; pH = 7, 180 sec
  Uptake of ^14C-methylamine in presence of carbonyl cyanide m-chlorophenylhydrazone: 3620.36 cpm
Yeast strain Σ1278b; pH = 7, 10 sec
  Uptake of ^14C-methylamine in presence of carbonyl cyanide m-chlorophenylhydrazone (CCCP): 173.20 cpm
Yeast strain Σ1278b; pH = 7, 60 sec
  Uptake of ^14C-methylamine in presence of carbonyl cyanide m-chlorophenylhydrazone (CCCP): 316.80 cpm
Yeast strain Σ1278b; pH = 7, 120 sec
  Uptake of ^14C-methylamine in presence of carbonyl cyanide m-chlorophenylhydrazone (CCCP): 460.40 cpm
Yeast strain Σ1278b; pH = 7, 180 sec
  Uptake of ^14C-methylamine in presence of carbonyl cyanide m-chlorophenylhydrazone (CCCP): 608.00 cpm

## O=[N+]([O-])c1ccc(O)c([N+](=O)[O-])c1 [DNP]
[1]; pH = 7, 10 sec
  Uptake of ^14C-methylamine in presence of 0.1 mM dinitrophenol (DNP): 378.00 cpm
[1]; pH = 7, 60 sec
  Uptake of ^14C-methylamine in presence of 0.1 mM dinitrophenol (DNP): 1349.40 cpm
[1]; pH = 7, 120 sec
  Uptake of ^14C-methylamine in presence of 0.1 mM dinitrophenol (DNP): 2794.44 cpm
[1]; pH = 7, 180 sec
  Uptake of ^14C-methylamine in presence of 0.1 mM dinitrophenol (DNP): 2794.44 cpm
Yeast strain Σ1278b; pH = 7, 10 sec
  Uptake of ^14C-methylamine in presence of 0.1 mM dinitrophenol (DNP): 167.20 cpm
Yeast strain Σ1278b; pH = 7, 60 sec
  Uptake of ^14C-methylamine in presence of 0.1 mM dinitrophenol (DNP): 386.00 cpm
Yeast strain Σ1278b; pH = 7, 120 sec
  Uptake of ^14C-methylamine in presence of 0.1 mM dinitrophenol (DNP): 706.80 cpm
Yeast strain Σ1278b; pH = 7, 180 sec
  Uptake of ^14C-methylamine in presence of 0.1 mM dinitrophenol (DNP): 906.00 cpm

## Cl.N [NH4Cl]
Yeast strain Σ1278b; 1278b, pH = 7, 10 sec
  Uptake of ^14C-methylamine in presence of 0.5 mM NH4Cl: 356.60 cpm
Yeast strain Σ1278b; 1278b, pH = 7, 60 sec
  Uptake of ^14C-methylamine in presence of 0.5 mM NH4Cl: 885.60 cpm
Yeast strain Σ1278b; 1278b, pH = 7, 120 sec
  Uptake of ^14C-methylamine in presence of 0.5 mM NH4Cl: 1237.80 cpm
Yeast strain Σ1278b; 1278b, pH = 7, 180 sec
  Uptake of ^14C-methylamine in presence of 0.5 mM NH4Cl: 1597.40 cpm
[2]; 26972c::pFL61, pH = 7, 10 sec
  Uptake of ^14C-methylamine in presence of 0.5 mM NH4Cl: 271.60 cpm
[2]; 26972c::pFL61, pH = 7, 60 sec
  Uptake of ^14C-methylamine in presence of 0.5 mM NH4Cl: 795.80 cpm
[2]; 26972c::pFL61, pH = 7, 120 sec
  Uptake of ^14C-methylamine in presence of 0.5 mM NH4Cl: 1388.20 cpm
[2]; 26972c::pFL61, pH = 7, 180 sec
  Uptake of ^14C-methylamine in presence of 0.5 mM NH4Cl: 1773.00 cpm
Saccharomyces cerevisiae; both transport functions of Saccharomyces
  inhibition of methylamine-uptake functions: inhibitable

## CN [^14C-methylamine, methylamine]
[1]; pH = 4, 10 sec
  Uptake of ^14C-methylamine: 204.80 cpm and 214.80 cpm
[1]; pH = 4, 60 sec
  Uptake of ^14C-methylamine: 283.80 cpm and 345.60 cpm
[1]; pH = 4, 120 sec
  Uptake of ^14C-methylamine: 434.40 cpm and 594.60 cpm
[1]; pH = 4, 180 sec
  Uptake of ^14C-methylamine: 479.60 cpm and 842.20 cpm
[1]; pH = 7, 10 sec
  Uptake of ^14C-methylamine: 302.80 cpm and 352.20 cpm
[1]; pH = 7, 60 sec
  Uptake of ^14C-methylamine: 1247.80 cpm and 1292.20 cpm
[1]; pH = 7, 120 sec
  Uptake of ^14C-methylamine: 3152.50 cpm and 3478.28 cpm
[1]; pH = 7, 180 sec
  Uptake of ^14C-methylamine: 8490.83 cpm and 6099.39 cpm
Yeast strain Σ1278b; 1278b, pH = 7, 10 sec
  Uptake of ^14C-methylamine: 469.60 cpm
Yeast strain Σ1278b; 1278b, pH = 7, 60 sec
  Uptake of ^14C-methylamine: 1022.80 cpm
Yeast strain Σ1278b; 1278b, pH = 7, 120 sec
  Uptake of ^14C-methylamine: 6176.36 cpm
Yeast strain Σ1278b; 1278b, pH = 7, 180 sec
  Uptake of ^14C-methylamine: 16826.67 cpm
Yeast strain Σ1278b; Σ1278b, pH = 4, 10 sec
  Uptake of ^14C-methylamine: 289.00 cpm
Yeast strain Σ1278b; Σ1278b, pH = 4, 60 sec
  Uptake of ^14C-methylamine: 1151.20 cpm
Yeast strain Σ1278b; Σ1278b, pH = 4, 120 sec
  Uptake of ^14C-methylamine: 19605.46 cpm
Yeast strain Σ1278b; Σ1278b, pH = 4, 180 sec
  Uptake of ^14C-methylamine: 32651.43 cpm
[2]; 26972c::pFL61, pH = 4, 10 sec, two independent series
  Uptake of ^14C-methylamine: 220.20 cpm and 117.20 cpm
[2]; 26972c::pFL61, pH = 4, 60 sec, two independent series
  Uptake of ^14C-methylamine: 200.60 cpm and 138.60 cpm
[2]; 26972c::pFL61, pH = 4, 120 sec, two independent series
  Uptake of ^14C-methylamine: 284.80 cpm and 197.40 cpm
[2]; 26972c::pFL61, pH = 4, 180 sec, two independent series
  Uptake of ^14C-methylamine: 317.60 cpm and 285.60 cpm
[2]; 26972c::pFL61, pH = 7, 10 sec
  Uptake of ^14C-methylamine: 202.20 cpm
[2]; 26972c::pFL61, pH = 7, 60 sec
  Uptake of ^14C-methylamine: 291.80 cpm
[2]; 26972c::pFL61, pH = 7, 120 sec
  Uptake of ^14C-methylamine: 524.80 cpm
[2]; 26972c::pFL61, pH = 7, 180 sec
  Uptake of ^14C-methylamine: 797.80 cpm
Saccharomyces cerevisiae; high affinity transporter with low capacity
  maximum speed Vmax: 20 nmol/min per mg cells (dry weight)
Saccharomyces cerevisiae; high affinity transporter with low capacity, read-out: Km value
  Km: 250 µM
Saccharomyces cerevisiae; low affinity system with high capacity
  Vmax: 50 nmol/min per mg cells
Saccharomyces cerevisiae; low affinity system with high capacity, read-out: Km
  Km: 2000 µM
Saccharomyces cerevisiae; low affinity system with medium capacity
  Vmax: 33 nmol/min per mg cells
Saccharomyces cerevisiae; low affinity system with medium capacity, read-out: Km
  Km: 20000 µM

— US20010003848A1, “DNA SEQUENCES FOR AMMONIUM TRANSPORTER, PLASMIDS, BACTERIA, YEASTS, PLANT CELLS AND PLANTS CONTAINING THE TRANSPORTER” (priority 1993, published 2001)
